Assay results taken from ChEMBL document CHEMBL1156426, “Structure-based inhibitor design for an enzyme that binds different steroids: a potent inhibitor for human type 5 17beta-hydroxysteroid dehydrogenase” (J Biol Chem, 2007).

Columns and labels:
[1] = biological target: T1, Aldo-keto reductase family 1 member C3 (Homo sapiens, UniProt P42330); assay: Inhibition of human 17beta HSD5 in HEK cells; format: cell-based, HEK293
T1 sequence (P42330 whole entry): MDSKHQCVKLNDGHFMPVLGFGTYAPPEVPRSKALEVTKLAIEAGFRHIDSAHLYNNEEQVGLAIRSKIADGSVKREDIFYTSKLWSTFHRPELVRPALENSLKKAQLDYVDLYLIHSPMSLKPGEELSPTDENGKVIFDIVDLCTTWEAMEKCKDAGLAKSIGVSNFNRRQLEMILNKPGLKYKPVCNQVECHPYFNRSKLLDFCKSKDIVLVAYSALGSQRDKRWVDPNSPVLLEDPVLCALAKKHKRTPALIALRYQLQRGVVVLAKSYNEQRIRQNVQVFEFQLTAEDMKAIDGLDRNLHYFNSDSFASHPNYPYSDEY

[2] = biological target: T1, Aldo-keto reductase family 1 member C3; assay: Inhibition of human 17beta HSD5 mediated conversion of testosterone to delta-4-androstene-3,17-dione

Compound | IC50 [1] [nM] | Ki [2] [nM]
COCCOc1cc2c(cc1OC(N)=O)[C@H]1CC[C@@]3(C)[C@@H](CC[C@@]34CCC(C)(C)C(=O)O4)[C@@H]1CC2 | 9.5 | 
CC1(C)CC[C@@]2(CC[C@H]3[C@@H]4CCc5cc(C(N)=O)ccc5[C@H]4CC[C@@]32C)OC1=O | 3.2 | 6.9
COCCOc1cc2c(cc1C#N)[C@H]1CC[C@@]3(C)[C@@H](CC[C@@]34CCC(C)(C)C(=O)O4)[C@@H]1CC2 [EM1396] | 13 | 
